The test system of data set [1] is non-transformed cells (fibroblasts, primary melanocytes). Kind of data set: Viability of non-transformed cells. It is filed as cell-based, human. Particulars: at concentrations that inhibit tumor cell viability. The protocol:
FIGS. 2A-2D illustrate the cytotoxicity of PET-16 to human tumor cells and its inhibition on E. coli growth. FIG. 2A is a line graph with data obtained from MTT assays of human melanoma cell lines treated with the indicated concentrations of PES or PET-16 for 72 h. The corresponding cell survival is normalized to vehicle (DMSO) treatment. Average and standard deviation (s.d.) from three independent experiments are shown. FIG. 2B are bar graphs of human melanoma (A875) cells and nontransformed human (IMR90) fibroblasts that were treated with DMSO, 10 μM PES or 10 μM PET-16 for 24 h. […] FIG. 2C is a line graph illustrating the growth of E. coli DH5α treated with different concentrations of PES or PET-16 for 6 h at 43° C. Error bars represent the s.d. of four independent experiments. FIG. 2D is a bar graph illustrating the growth of E. coli DH5α treated with DMSO, 30 μM PET-16 or 30 μM TPP for 6 h at 43° C. Error bars represent the s.d. of four independent experiments.

For data set [2], the system named is BRAF(V600E). Kind of data set: Western blot of client proteins in soluble and detergent-insoluble fractions. In kind it is cell-based. Particulars: melanoma tumor cells, soluble fraction. The protocol: PET-16 promotes the loss of HSP90/HSP70 client proteins from the soluble fraction and the accumulation of some of these client proteins in the protein detergent-insoluble cellular fraction. Human melanoma cell lines (451 Lu, 1205 Lu and WM852) and mouse melanoma cell line (Yumm), as indicated, were treated with DMSO, PES or PET-16 for 24 hours. Cells were fractionated into detergent-soluble and detergent-insoluble preparations and assayed by Western blot (WB) analysis for the proteins indicated. […] The expression of many of these proteins is reduced in the soluble cell fractions, and often the abundance increases in the detergent insoluble fractions. This is indicative of loss of function of the client proteins.
Western blotting, immunoprecipitations and B-PES pull down assays were performed as described in Leu 2009 and Leu 2011. Preparation of biotin-conjugated PES was described in Leu 2009 and Leu 2011; Balaburski, 2013. Liquid chromatography-tandem mass spectrometry was performed by the Genomics Institute and Abramson Cancer Center Proteomics Core Facility at the Perelman School of Medicine, University of Pennsylvania. Electron microscopy (EM) and EM imaging were performed by The Electron Microscopy Resource Laboratory, Biomedical Research Core Facilities, at the Perelman School of Medicine, University of Pennsylvania.
Background: A western blot detects proteins with antibodies after separation by electrophoresis.

The test system of data set [3] is primary melanocytes and nontransformed human fibroblasts (IMR90). Kind of data set: Cellular ATP levels (AlamarBlue assay) in normal cells. It is filed as cell-based. From the text: FIGS. 5A-5F illustrates that PET-16 leads to loss of mitochondrial protein Cyclophilin D and impairs bioenergetics in tumor cells. FIGS. 5A-5D are western blots of HSP70, which is present at mitochondria of tumor H1299 cells but not in normal tissue, such as liver. The constitutively expressed 70 kDa family members, HSC70 and GRP75, are present in mitochondria of normal cells. Equal amounts of whole cell (WC)-, cytosolic (cyto)-, and mitochondrial (mito)-extracts prepared from cell lines H1299 (A, C) and MIA PaCa-2 (B) or normal (liver) cells (C, D) were examined by western blot analysis for the presence of the proteins indicated. […] Decreases of AlamarBlue® fluorescence, indicative of mitochondrial damage, are noted in PET-16-treated tumor cells (melanoma tumor cell line WM88 (-), melanoma tumor cell line WM3000 (×), melanoma tumor cell line WM852 (*), human melanoma 451 Lu cells (●), and melanoma tumor cell line WM989 (|), but not normal cells (nontransformed human fibroblasts (IMR90-♦) and primary melanocytes (▪)). Values are normalized to the vehicle-treated cells. Error bars represent standard deviation (s.d.) of four independent experiments.

Data set [4] concerns mouse melanoma cell line Yumm 1.7. Briefly: In vivo melanoma model, Yumm 1.7. The conditions noted are these: single agent, C57BL/6 mice. The protocol: FIGS. 14A and 14B provide evidence that PET-16 impairs melanoma growth in vivo as a single agent. A well-recognized pulmonary metastatic model was utilized in which immunocompetent, wild-type C57BL/6 mice were injected with the metastatic mouse melanoma cell line Yumm 1.7, as indicated. […] FIG. 14A is a summary of the steps entailed in the model.

Data set [5] deals with HSP70 (Homo sapiens, UniProt P0DMV8). Kind of data set: Immunoprecipitation of HSP70 and co-precipitating proteins. Also on record: endogenous in cells; host or cells: A875 and 451 Lu human melanoma cells. It is filed as cell-based. Particulars: IP-WB, A875 or 451 Lu cells. The source says:
FIGS. 4A-4L illustrate that PET-16 impairs proteostasis. […] There is a general absence of obvious nuclei in PET-16 treated tumor cells. […] FIGS. 4D and 4E are gels of whole-cell extracts (WCE) prepared from human melanoma A875 (D) or 451 Lu (E) cells treated with DMSO, PES or PET-16 that were immunoprecipitated using an anti-HSP70 antibody. The excised band of about 70 kDa shown in the Coomassie gel is HSP70, as confirmed by liquid chromatography—tandem mass spectrometry analysis. FIGS. 4F-4I are western blots of cell lines were treated with DMSO, PES or PET-16 for 24 h and immunoblotted for the indicated proteins. FIG. 4J are western blots of indicated melanomas pretreated with DMSO, PES or PET-16, followed by treatment with IL-6. Cell extracts were immunoblotted for the proteins indicated. Inhibition of IL-6 induced STAT3 and STAT1 phosphorylation by PET-16. FIG. 4K is a western blot analysis indicating altered processing of cathepsin L from the larger precursor form to the smaller mature form in the indicated cells following PET-16 treatment for 24 h. FIG. 4L is a western blot of the human melanoma 451 Lu cells treated with DMSO, PES or PET-16 for 24 h. Cells were harvested in 1% NP40-containing lysis buffer, fractionated into detergent-soluble and detergent-insoluble preparations, and assayed by western blot for ubiquitin. […]

HSP70, sequence (P0DMV8 whole entry): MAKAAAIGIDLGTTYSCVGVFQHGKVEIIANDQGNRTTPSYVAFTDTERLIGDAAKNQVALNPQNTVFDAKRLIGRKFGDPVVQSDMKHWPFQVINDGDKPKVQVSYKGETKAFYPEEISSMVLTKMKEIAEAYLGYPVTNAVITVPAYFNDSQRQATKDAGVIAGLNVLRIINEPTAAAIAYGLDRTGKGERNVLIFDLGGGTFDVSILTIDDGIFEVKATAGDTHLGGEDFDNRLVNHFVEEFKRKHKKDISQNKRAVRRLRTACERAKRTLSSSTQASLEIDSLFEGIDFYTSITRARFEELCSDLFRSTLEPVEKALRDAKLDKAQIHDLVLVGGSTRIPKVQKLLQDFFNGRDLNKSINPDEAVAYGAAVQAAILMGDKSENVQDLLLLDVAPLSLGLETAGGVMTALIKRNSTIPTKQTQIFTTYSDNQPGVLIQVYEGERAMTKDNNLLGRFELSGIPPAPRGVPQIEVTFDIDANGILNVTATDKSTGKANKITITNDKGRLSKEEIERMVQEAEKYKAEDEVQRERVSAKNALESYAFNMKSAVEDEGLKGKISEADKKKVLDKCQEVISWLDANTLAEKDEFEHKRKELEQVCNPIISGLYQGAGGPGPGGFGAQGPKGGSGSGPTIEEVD

In the case of `C(#C[P+](c1ccccc1)(c1ccccc1)c1ccccc1)c1ccccc1.[Br-]` [PET-16, triphenyl(phenylethynyl)phosphonium bromide], in data set [1], the “effect on viability of non-transformed cells” value is reported as “little effect”. The “BRAF(V600E) protein abundance” value in data set [2] is listed as “reduction”. In data set [3], the “total ATP levels” value was “no decrease”. In addition, the “melanoma growth in vivo” value in data set [4] is recorded as “inhibits melanoma xenograft growth”. Further, the “interactions between HSP70 and client/substrate proteins” value in data set [5] is recorded as “loss of interactions”.

The values above are taken from US10010560B2, “Small molecule HSP70 inhibitors” (THE TRUSTEES OF THE UNIVERSITY OF PENNSYLVANIA, priority 2014, dated 2018).
